Experimental data from PubChem BioAssay AID2060349 (Molecular Pharmacology Branch, DTP, NCI, 2025).

Tested on: 762968-020-R-J2-PDC spheroids viability
Assay: Anticancer human tumor 762968-020-R-J2-PDC patient-derived colon carcinoma cell line growth inhibition [TAK]
Settings: spheroids with HUVEC and MSC; for IC50: curve of first compound; for viability, T/C: stronger effect = lower value
Outline: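 Spheroids of 60% malignant cells, 25% HUVEC and 15% hMSC were exposed to targeted agents combined with TAK-243 or ipatasertib. Concentrations started at or near clinical Cmax (10 microM if unknown) and descended in half-log steps.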
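Note: spheroids exposed to drug for 7 days before readout.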
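Throughout, for viability, T/C: 100% = DMSO vehicle control wells.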

## CC(=O)Nc1cccc(-n2c(=O)n(C3CC3)c(=O)c3c(Nc4ccc(I)cc4F)n(C)c(=O)c(C)c32)c1 + CC(C)NCC(C(=O)N1CCN(c2ncnc3c2C(C)CC3O)CC1)c1ccc(Cl)cc1
Second compound 0.3 µM
  IC50: 20.2 nM
Second compound 0.949 µM
  IC50: 20.8 nM
Second compound 3 µM
  IC50: 23.1 nM
Second compound 9.49 µM
  IC50: 17.7 nM
Second compound 30 µM
  IC50: 16.2 nM
Second compound 0.3 µM, first compound 94.9 pM
  viability, T/C: 98.7%
Second compound 0.3 µM, first compound 0.0003 µM
  viability, T/C: 104%
Second compound 0.3 µM, first compound 0.000949 µM
  viability, T/C: 91.6%
Second compound 0.3 µM, first compound 0.003 µM
  viability, T/C: 82.2%
Second compound 0.3 µM, first compound 0.00949 µM
  viability, T/C: 70.1%
Second compound 0.3 µM, first compound 0.03 µM
  viability, T/C: 39.7%
Second compound 0.949 µM, first compound 94.9 pM
  viability, T/C: 92.9%
Second compound 0.949 µM, first compound 0.0003 µM
  viability, T/C: 98.1%
Second compound 0.949 µM, first compound 0.000949 µM
  viability, T/C: 91.8%
Second compound 0.949 µM, first compound 0.003 µM
  viability, T/C: 96%
Second compound 0.949 µM, first compound 0.00949 µM
  viability, T/C: 74.5%
Second compound 0.949 µM, first compound 0.03 µM
  viability, T/C: 38.5%
Second compound 3 µM, first compound 94.9 pM
  viability, T/C: 101%
Second compound 3 µM, first compound 0.0003 µM
  viability, T/C: 103%
Second compound 3 µM, first compound 0.000949 µM
  viability, T/C: 97.4%
Second compound 3 µM, first compound 0.003 µM
  viability, T/C: 90.2%
Second compound 3 µM, first compound 0.00949 µM
  viability, T/C: 80.2%
Second compound 3 µM, first compound 0.03 µM
  viability, T/C: 41.1%
Second compound 9.49 µM, first compound 94.9 pM
  viability, T/C: 96.1%
Second compound 9.49 µM, first compound 0.0003 µM
  viability, T/C: 99.1%
Second compound 9.49 µM, first compound 0.000949 µM
  viability, T/C: 95.6%
Second compound 9.49 µM, first compound 0.003 µM
  viability, T/C: 80.6%
Second compound 9.49 µM, first compound 0.00949 µM
  viability, T/C: 67.3%
Second compound 9.49 µM, first compound 0.03 µM
  viability, T/C: 36.3%
Second compound 30 µM, first compound 94.9 pM
  viability, T/C: 90.3%
Second compound 30 µM, first compound 0.0003 µM
  viability, T/C: 87.7%
Second compound 30 µM, first compound 0.000949 µM
  viability, T/C: 80.3%
Second compound 30 µM, first compound 0.003 µM
  viability, T/C: 71.4%
Second compound 30 µM, first compound 0.00949 µM
  viability, T/C: 60.9%
Second compound 30 µM, first compound 0.03 µM
  viability, T/C: 38.8%

## CC(C)CC(NC(=O)CNC(=O)c1cc(Cl)ccc1Cl)B1OC(=O)CC(CC(=O)O)(C(=O)O)O1 (stereo not given) + CC(C)NCC(C(=O)N1CCN(c2ncnc3c2C(C)CC3O)CC1)c1ccc(Cl)cc1
Second compound 0.3 µM
  IC50: > 100 nM
Second compound 0.949 µM
  IC50: > 100 nM
Second compound 3 µM
  IC50: > 100 nM
Second compound 9.49 µM
  IC50: > 100 nM
Second compound 30 µM
  IC50: > 100 nM
Second compound 0.3 µM, first compound 0.000316 µM
  viability, T/C: 100%
Second compound 0.3 µM, first compound 0.001 µM
  viability, T/C: 105%
Second compound 0.3 µM, first compound 0.00316 µM
  viability, T/C: 93.4%
Second compound 0.3 µM, first compound 0.01 µM
  viability, T/C: 108%
Second compound 0.3 µM, first compound 0.0316 µM
  viability, T/C: 99.4%
Second compound 0.3 µM, first compound 0.1 µM
  viability, T/C: 79.5%
Second compound 0.949 µM, first compound 0.000316 µM
  viability, T/C: 94%
Second compound 0.949 µM, first compound 0.001 µM
  viability, T/C: 93.8%
Second compound 0.949 µM, first compound 0.00316 µM
  viability, T/C: 97.1%
Second compound 0.949 µM, first compound 0.01 µM
  viability, T/C: 103%
Second compound 0.949 µM, first compound 0.0316 µM
  viability, T/C: 103%
Second compound 0.949 µM, first compound 0.1 µM
  viability, T/C: 70.6%
Second compound 3 µM, first compound 0.000316 µM
  viability, T/C: 104%
Second compound 3 µM, first compound 0.001 µM
  viability, T/C: 102%
Second compound 3 µM, first compound 0.00316 µM
  viability, T/C: 98.2%
Second compound 3 µM, first compound 0.01 µM
  viability, T/C: 105%
Second compound 3 µM, first compound 0.0316 µM
  viability, T/C: 95.2%
Second compound 3 µM, first compound 0.1 µM
  viability, T/C: 73.4%
Second compound 9.49 µM, first compound 0.000316 µM
  viability, T/C: 94%
Second compound 9.49 µM, first compound 0.001 µM
  viability, T/C: 94.8%
Second compound 9.49 µM, first compound 0.00316 µM
  viability, T/C: 102%
Second compound 9.49 µM, first compound 0.01 µM
  viability, T/C: 101%
Second compound 9.49 µM, first compound 0.0316 µM
  viability, T/C: 95.5%
Second compound 9.49 µM, first compound 0.1 µM
  viability, T/C: 79.9%
Second compound 30 µM, first compound 0.000316 µM
  viability, T/C: 79%
Second compound 30 µM, first compound 0.001 µM
  viability, T/C: 89.4%
Second compound 30 µM, first compound 0.00316 µM
  viability, T/C: 89.4%
Second compound 30 µM, first compound 0.01 µM
  viability, T/C: 88%
Second compound 30 µM, first compound 0.0316 µM
  viability, T/C: 84.5%
Second compound 30 µM, first compound 0.1 µM
  viability, T/C: 72.7%
